Columns and labels:
Assay in all cases: radiometric filter-binding kinase assay
INSRR (human) = INSRR (human) (UniProt P14616); settings: compound 1.0 µM
PHKG1 (human) = PHKG1 (human) (UniProt Q16816)
PRKAA1 or PRKAA2 (rat) = settings: accession and sequence are those of the human protein
MINK1 (human) = MINK1 (human) (UniProt Q8N4C8)
CAMKK2 (human) = CAMKK2 (human) (UniProt Q96RR4)
NUAK1 (human) = NUAK1 (human) (UniProt O60285)
MARK2 (human) = MARK2 (human) (UniProt Q7KZI7)
PAK7 (human) = PAK7 (human) (UniProt Q9P286)
JAK2 JH1 JH2 (human) = JAK2 JH1 JH2 (human) (UniProt O60674)
Chain of JAK2 JH1 JH2 (human) (O60674 whole entry, looked up): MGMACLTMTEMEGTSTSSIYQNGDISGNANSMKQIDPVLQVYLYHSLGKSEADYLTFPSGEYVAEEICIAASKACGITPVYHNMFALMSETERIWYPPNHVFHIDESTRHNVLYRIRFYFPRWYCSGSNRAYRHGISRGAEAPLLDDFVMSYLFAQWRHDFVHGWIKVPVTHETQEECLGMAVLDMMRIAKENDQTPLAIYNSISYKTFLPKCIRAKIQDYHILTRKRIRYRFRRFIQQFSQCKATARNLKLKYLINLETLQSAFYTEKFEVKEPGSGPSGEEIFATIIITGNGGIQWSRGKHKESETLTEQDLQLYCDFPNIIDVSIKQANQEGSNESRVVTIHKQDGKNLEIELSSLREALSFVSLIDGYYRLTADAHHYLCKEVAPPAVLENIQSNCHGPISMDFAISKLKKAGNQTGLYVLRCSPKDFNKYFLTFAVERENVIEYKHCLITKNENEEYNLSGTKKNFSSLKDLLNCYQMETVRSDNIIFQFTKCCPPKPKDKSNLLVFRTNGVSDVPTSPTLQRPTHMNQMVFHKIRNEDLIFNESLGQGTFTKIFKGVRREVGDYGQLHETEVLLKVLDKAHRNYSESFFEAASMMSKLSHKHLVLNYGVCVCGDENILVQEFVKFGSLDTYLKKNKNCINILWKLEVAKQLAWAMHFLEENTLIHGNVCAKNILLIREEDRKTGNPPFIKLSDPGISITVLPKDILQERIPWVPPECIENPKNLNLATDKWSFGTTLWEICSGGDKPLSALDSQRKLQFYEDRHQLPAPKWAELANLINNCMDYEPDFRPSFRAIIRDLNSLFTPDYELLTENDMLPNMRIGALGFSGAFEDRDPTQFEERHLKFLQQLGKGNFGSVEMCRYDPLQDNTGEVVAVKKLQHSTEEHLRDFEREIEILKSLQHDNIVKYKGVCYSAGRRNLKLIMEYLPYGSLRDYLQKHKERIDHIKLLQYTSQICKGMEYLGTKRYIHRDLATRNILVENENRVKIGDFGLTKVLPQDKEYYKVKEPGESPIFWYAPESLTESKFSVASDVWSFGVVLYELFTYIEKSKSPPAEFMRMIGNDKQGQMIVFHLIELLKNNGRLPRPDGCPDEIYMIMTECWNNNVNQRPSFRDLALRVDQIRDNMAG

CSK (human) = CSK (human) (UniProt P41240)
RPS6KA5 KD1 KD2 (human) = RPS6KA5 KD1 KD2 (human) (UniProt O75582)
DYRK2 (human) = DYRK2 (human) (UniProt Q92630)
MARK1 (human) = MARK1 (human) (UniProt Q9P0L2)
EPHB2 (human) = EPHB2 (human) (UniProt P29323); settings: compound 10.0 µM
NEK2 (human) = NEK2 (human) (UniProt P51955)
EPHA2 (human) = EPHA2 (human) (UniProt P29317)
PRKACA (human) = PRKACA (human) (UniProt P17612)
PRKCA (human) = PRKCA (human) (UniProt P17252)
MKNK1 (human) = MKNK1 (human) (UniProt Q9BUB5)
Chain of MKNK1 (human) (Q9BUB5 whole entry, looked up): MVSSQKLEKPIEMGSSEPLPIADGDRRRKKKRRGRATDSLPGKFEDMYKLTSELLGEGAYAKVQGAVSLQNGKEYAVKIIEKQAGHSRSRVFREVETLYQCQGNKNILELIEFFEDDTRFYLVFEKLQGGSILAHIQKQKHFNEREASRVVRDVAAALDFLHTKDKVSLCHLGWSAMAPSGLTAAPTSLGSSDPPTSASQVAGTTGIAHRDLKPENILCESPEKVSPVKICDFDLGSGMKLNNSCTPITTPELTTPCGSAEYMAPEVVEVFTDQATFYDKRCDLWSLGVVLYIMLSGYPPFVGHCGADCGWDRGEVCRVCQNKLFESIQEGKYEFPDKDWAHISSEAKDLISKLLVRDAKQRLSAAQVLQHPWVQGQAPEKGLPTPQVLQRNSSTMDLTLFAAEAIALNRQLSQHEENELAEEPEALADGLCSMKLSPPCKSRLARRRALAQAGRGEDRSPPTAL

CDK2 CCNA2 (human) = CDK2 CCNA2 (human) (UniProt P20248+P24941)
HIPK3 (human) = HIPK3 (human) (UniProt Q9H422)
Chain of HIPK3 (human) (Q9H422 whole entry, looked up): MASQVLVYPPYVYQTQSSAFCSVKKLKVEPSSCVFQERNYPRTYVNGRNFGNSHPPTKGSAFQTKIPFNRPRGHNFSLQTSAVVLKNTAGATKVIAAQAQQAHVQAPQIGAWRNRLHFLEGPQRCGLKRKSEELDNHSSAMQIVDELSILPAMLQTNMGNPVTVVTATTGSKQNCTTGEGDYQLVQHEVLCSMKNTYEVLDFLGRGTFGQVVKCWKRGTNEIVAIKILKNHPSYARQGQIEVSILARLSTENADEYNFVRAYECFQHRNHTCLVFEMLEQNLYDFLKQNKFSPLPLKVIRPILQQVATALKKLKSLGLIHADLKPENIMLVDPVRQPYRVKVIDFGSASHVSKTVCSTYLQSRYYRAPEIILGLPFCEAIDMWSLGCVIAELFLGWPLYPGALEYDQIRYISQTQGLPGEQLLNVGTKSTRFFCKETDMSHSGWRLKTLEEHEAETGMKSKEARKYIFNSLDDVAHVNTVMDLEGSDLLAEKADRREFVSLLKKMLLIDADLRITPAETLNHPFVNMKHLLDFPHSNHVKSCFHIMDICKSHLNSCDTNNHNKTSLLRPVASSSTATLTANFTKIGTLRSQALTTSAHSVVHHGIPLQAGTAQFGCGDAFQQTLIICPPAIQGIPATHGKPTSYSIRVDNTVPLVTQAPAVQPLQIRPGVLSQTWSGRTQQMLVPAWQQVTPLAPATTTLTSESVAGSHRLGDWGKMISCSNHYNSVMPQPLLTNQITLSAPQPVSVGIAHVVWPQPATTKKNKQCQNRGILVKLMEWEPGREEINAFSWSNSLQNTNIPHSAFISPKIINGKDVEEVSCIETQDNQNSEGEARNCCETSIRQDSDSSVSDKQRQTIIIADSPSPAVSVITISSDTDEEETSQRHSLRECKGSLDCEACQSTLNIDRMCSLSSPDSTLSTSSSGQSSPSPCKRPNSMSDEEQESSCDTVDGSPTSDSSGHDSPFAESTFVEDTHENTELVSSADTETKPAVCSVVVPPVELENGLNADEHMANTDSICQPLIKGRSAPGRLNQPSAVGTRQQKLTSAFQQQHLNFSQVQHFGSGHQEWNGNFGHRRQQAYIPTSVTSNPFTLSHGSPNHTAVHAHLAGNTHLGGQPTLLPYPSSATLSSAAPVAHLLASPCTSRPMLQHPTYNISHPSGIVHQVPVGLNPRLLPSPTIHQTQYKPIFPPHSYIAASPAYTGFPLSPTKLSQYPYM

NEK6 (human) = NEK6 (human) (UniProt Q9HC98)
Chain of NEK6 (human) (Q9HC98 whole entry, looked up): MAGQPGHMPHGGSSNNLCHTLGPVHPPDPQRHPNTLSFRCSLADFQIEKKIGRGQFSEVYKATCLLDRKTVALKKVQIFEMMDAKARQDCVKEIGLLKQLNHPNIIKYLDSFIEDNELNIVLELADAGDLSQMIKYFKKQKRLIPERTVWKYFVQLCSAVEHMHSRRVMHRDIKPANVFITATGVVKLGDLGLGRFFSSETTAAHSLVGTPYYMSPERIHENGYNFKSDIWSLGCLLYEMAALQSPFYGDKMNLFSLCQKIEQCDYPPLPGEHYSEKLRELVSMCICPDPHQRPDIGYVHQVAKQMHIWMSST

MAPK15 (human) = MAPK15 (human) (UniProt Q8TD08)
ERBB4 (human) = ERBB4 (human) (UniProt Q15303)
CaMK1 (human) = CaMK1 (human) (UniProt Q14012)
Chain of CaMK1 (human) (Q14012 whole entry, looked up): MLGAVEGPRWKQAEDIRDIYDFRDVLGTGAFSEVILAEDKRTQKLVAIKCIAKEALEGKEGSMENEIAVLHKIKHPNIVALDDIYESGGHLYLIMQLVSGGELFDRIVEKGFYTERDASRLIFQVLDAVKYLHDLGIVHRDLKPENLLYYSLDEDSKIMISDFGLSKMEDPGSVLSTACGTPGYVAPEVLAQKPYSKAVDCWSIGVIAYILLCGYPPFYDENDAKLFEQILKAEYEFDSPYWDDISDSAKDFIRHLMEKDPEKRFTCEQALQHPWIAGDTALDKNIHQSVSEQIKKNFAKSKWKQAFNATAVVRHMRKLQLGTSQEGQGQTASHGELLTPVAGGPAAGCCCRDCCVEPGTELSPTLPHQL

SRPK1 (human) = SRPK1 (human) (UniProt Q96SB4)
Chain of SRPK1 (human) (Q96SB4 whole entry, looked up): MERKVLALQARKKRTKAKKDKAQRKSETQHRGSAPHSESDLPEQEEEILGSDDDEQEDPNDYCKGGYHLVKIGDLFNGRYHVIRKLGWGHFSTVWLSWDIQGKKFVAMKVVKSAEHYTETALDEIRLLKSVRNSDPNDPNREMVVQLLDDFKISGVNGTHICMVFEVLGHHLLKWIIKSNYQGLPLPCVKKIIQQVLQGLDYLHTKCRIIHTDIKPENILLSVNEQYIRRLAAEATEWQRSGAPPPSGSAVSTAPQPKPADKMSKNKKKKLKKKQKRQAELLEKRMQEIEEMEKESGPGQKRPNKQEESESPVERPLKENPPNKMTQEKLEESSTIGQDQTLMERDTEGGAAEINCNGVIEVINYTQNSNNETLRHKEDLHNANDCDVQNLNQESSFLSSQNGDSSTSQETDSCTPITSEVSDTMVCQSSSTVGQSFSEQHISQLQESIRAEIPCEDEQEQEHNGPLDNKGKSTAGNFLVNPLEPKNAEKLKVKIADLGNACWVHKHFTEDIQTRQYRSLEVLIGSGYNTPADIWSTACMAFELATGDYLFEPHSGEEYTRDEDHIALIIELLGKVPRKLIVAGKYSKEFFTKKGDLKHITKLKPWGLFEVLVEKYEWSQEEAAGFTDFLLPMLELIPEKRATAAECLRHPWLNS

RIPK2 (human) = RIPK2 (human) (UniProt O43353)
BRSK1 (human) = BRSK1 (human) (UniProt Q8TDC3)
EPHA4 (human) = EPHA4 (human) (UniProt P54764)
LCK (mouse) = settings: accession and sequence are those of the human protein
MST4 (human) = MST4 (human) (UniProt Q9P289)
MAP2K1 (human) = MAP2K1 (human) (UniProt Q02750)
BTK (human) = BTK (human) (UniProt Q06187)
Chain of BTK (human) (Q06187 whole entry, looked up): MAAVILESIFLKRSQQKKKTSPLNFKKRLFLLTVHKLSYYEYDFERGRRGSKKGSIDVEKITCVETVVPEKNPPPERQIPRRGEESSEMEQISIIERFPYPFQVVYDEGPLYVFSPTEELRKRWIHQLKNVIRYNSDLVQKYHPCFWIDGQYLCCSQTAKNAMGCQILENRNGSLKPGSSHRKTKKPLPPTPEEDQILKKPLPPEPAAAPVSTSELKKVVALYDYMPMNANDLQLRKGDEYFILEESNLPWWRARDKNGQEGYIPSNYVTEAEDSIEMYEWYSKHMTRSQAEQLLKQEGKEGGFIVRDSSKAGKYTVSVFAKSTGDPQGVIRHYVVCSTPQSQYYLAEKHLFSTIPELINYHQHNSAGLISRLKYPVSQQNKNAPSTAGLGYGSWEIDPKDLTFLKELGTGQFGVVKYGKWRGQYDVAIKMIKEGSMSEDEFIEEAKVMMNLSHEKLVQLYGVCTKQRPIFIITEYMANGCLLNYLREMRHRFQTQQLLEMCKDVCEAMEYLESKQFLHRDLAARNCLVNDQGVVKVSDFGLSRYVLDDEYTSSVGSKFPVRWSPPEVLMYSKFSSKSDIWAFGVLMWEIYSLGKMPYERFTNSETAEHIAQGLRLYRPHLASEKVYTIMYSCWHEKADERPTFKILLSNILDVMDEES

MAPKAPK2 (human) = MAPKAPK2 (human) (UniProt P49137)

O=C(NOCC(O)CO)c1ccc(F)c(F)c1Nc1ccc(I)cc1Cl (stereo unspecified) showed a residual activity (INSRR (human)) of 84%, a residual activity (PHKG1 (human); compound 1.0 µM) of 94% and a residual activity (PHKG1 (human); compound 10.0 µM) of 90%. For the same compound, the residual activity (PRKAA1 or PRKAA2 (rat); compound 1.0 µM) was 111%, the residual activity (PRKAA1 or PRKAA2 (rat); compound 10.0 µM) was 120% and the residual activity (MINK1 (human); compound 1.0 µM) was 119%. The residual activity (MINK1 (human); compound 10.0 µM) was 127%, the residual activity (CAMKK2 (human); compound 1.0 µM) was 108% and the residual activity (CAMKK2 (human); compound 10.0 µM) was 103%. For the same compound, the residual activity (NUAK1 (human); compound 1.0 µM) was 108%, the residual activity (NUAK1 (human); compound 10.0 µM) was 95% and the residual activity (MARK2 (human); compound 1.0 µM) was 101%. It also gave a residual activity (MARK2 (human); compound 10.0 µM) of 101%, a residual activity (PAK7 (human); compound 1.0 µM) of 102% and a residual activity (PAK7 (human); compound 10.0 µM) of 86%. It also gave a residual activity (JAK2 JH1 JH2 (human); compound 1.0 µM) of 5%, a residual activity (JAK2 JH1 JH2 (human); compound 10.0 µM) of 8% and a residual activity (CSK (human); compound 1.0 µM) of 89%. For the same compound, the residual activity (CSK (human); compound 10.0 µM) was 88%, the residual activity (RPS6KA5 KD1 KD2 (human); compound 1.0 µM) was 98% and the residual activity (RPS6KA5 KD1 KD2 (human); compound 10.0 µM) was 96%. The residual activity (DYRK2 (human); compound 1.0 µM) was 107%, the residual activity (DYRK2 (human); compound 10.0 µM) was 111% and the residual activity (MARK1 (human); compound 1.0 µM) was 77%. For the same compound, the residual activity (MARK1 (human); compound 10.0 µM) was 71%, the residual activity (EPHB2 (human)) was 77% and the residual activity (NEK2 (human); compound 1.0 µM) was 98%. The residual activity (NEK2 (human); compound 10.0 µM) was 94%, the residual activity (EPHA2 (human); compound 1.0 µM) was 112% and the residual activity (EPHA2 (human); compound 10.0 µM) was 105%. The residual activity (PRKACA (human); compound 1.0 µM) was 94%, the residual activity (PRKACA (human); compound 10.0 µM) was 103% and the residual activity (PRKCA (human); compound 1.0 µM) was 93%. For the same compound, the residual activity (PRKCA (human); compound 10.0 µM) was 86%, the residual activity (MKNK1 (human); compound 1.0 µM) was 106% and the residual activity (MKNK1 (human); compound 10.0 µM) was 95%. The residual activity (CDK2 CCNA2 (human); compound 1.0 µM) was 95%, the residual activity (CDK2 CCNA2 (human); compound 10.0 µM) was 97% and the residual activity (HIPK3 (human); compound 1.0 µM) was 90%. It also gave a residual activity (HIPK3 (human); compound 10.0 µM) of 101%, a residual activity (NEK6 (human); compound 1.0 µM) of 101% and a residual activity (NEK6 (human); compound 10.0 µM) of 103%. The residual activity (MAPK15 (human); compound 1.0 µM) was 95%, the residual activity (MAPK15 (human); compound 10.0 µM) was 98% and the residual activity (ERBB4 (human); compound 1.0 µM) was 86%. For the same compound, the residual activity (ERBB4 (human); compound 10.0 µM) was 82%, the residual activity (CaMK1 (human); compound 1.0 µM) was 106% and the residual activity (CaMK1 (human); compound 10.0 µM) was 84%. For the same compound, the residual activity (SRPK1 (human); compound 1.0 µM) was 95%, the residual activity (SRPK1 (human); compound 10.0 µM) was 86% and the residual activity (RIPK2 (human); compound 1.0 µM) was 86%. The residual activity (RIPK2 (human); compound 10.0 µM) was 84%, the residual activity (BRSK1 (human); compound 1.0 µM) was 98% and the residual activity (BRSK1 (human); compound 10.0 µM) was 101%. For the same compound, the residual activity (EPHA4 (human); compound 1.0 µM) was 97%, the residual activity (EPHA4 (human); compound 10.0 µM) was 100% and the residual activity (LCK (mouse); compound 1.0 µM) was 93%. For the same compound, the residual activity (LCK (mouse); compound 10.0 µM) was 104%, the residual activity (MST4 (human); compound 1.0 µM) was 107% and the residual activity (MST4 (human); compound 10.0 µM) was 94%. For the same compound, the residual activity (MAP2K1 (human); compound 1.0 µM) was 36%, the residual activity (MAP2K1 (human); compound 10.0 µM) was 3% and the residual activity (BTK (human); compound 1.0 µM) was 102%. It also gave a residual activity (BTK (human); compound 10.0 µM) of 97%, a residual activity (MAPKAPK2 (human); compound 1.0 µM) of 104% and a residual activity (MAPKAPK2 (human); compound 10.0 µM) of 102%.
